According to PubChem BioAssay AID2060484 (Molecular Pharmacology Branch, DTP, NCI, 2025):

Tested on: SUM149PT spheroids with HUVEC/MSC, viability
Test: Anticancer human tumor SUM149PT cell line growth inhibition [GQUAD];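 note: spheroids exposed to drugs for seven days before readout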;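 for viability, T/C: percent viability relative to DMSO vehicle control taken as 100%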
Settings: for IC50: curve of first compound; for viability, T/C: stronger effect = lower value
Procedure, shortened: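 Viability of tumor cells grown as complex spheroids with endothelial and stromal cells, exposed to drug combinations. Top concentration at or near clinical Cmax (else 10 microM), diluted in half-log increments.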

[1] = second compound 0.0316 µM, first compound 0.0316 µM
[2] = second compound 0.0316 µM, first compound 0.1 µM
[3] = second compound 0.0316 µM, first compound 0.316 µM
[4] = second compound 0.0316 µM, first compound 1 µM
[5] = second compound 0.0316 µM, first compound 3.16 µM
[6] = second compound 0.0316 µM, first compound 10 µM
[7] = second compound 0.1 µM, first compound 0.0316 µM
[8] = second compound 0.1 µM, first compound 0.1 µM
[9] = second compound 0.1 µM, first compound 0.316 µM
[10] = second compound 0.1 µM, first compound 1 µM
[11] = second compound 0.1 µM, first compound 3.16 µM
[12] = second compound 0.1 µM, first compound 10 µM
[13] = second compound 0.316 µM, first compound 0.0316 µM
[14] = second compound 0.316 µM, first compound 0.1 µM
[15] = second compound 0.316 µM, first compound 0.316 µM
[16] = second compound 0.316 µM, first compound 1 µM
[17] = second compound 0.316 µM, first compound 3.16 µM
[18] = second compound 0.316 µM, first compound 10 µM
[19] = second compound 1 µM, first compound 0.0316 µM
[20] = second compound 1 µM, first compound 0.1 µM
[21] = second compound 1 µM, first compound 0.316 µM
[22] = second compound 1 µM, first compound 1 µM
[23] = second compound 1 µM, first compound 3.16 µM
[24] = second compound 1 µM, first compound 10 µM
[25] = second compound 3.16 µM, first compound 0.0316 µM
[26] = second compound 3.16 µM, first compound 0.1 µM
[27] = second compound 3.16 µM, first compound 0.316 µM
[28] = second compound 3.16 µM, first compound 1 µM
[29] = second compound 3.16 µM, first compound 3.16 µM
[30] = second compound 3.16 µM, first compound 10 µM
[31] = second compound 10 µM, first compound 0.0316 µM
[32] = second compound 10 µM, first compound 0.1 µM
[33] = second compound 10 µM, first compound 0.316 µM
[34] = second compound 10 µM, first compound 1 µM
[35] = second compound 10 µM, first compound 3.16 µM
[36] = second compound 10 µM, first compound 10 µM

How did the IC50 (second compound 0.0316 µM) turn out when `CC(C)n1c(=O)n(C)c2cnc3cc(F)c(-c4ccc(OCCCN5CCCCC5)nc4)cc3c21` + CN(C)c1ccc(Nc2c3ccc(NC(=O)CCN4CCCC4)cc3nc3cc(NC(=O)CCN4CCCC4)ccc23)cc1 was run?
The IC50 was over 10000 nM.

What about the IC50 (second compound 0.1 µM) of the same compound?
The IC50 was over 10000 nM.

What about the IC50 (second compound 0.316 µM) of the same compound?
The IC50 was over 10000 nM.

What about the IC50 (second compound 1 µM) of the same compound?
Its IC50 is over 10000 nM.

And the IC50 (second compound 3.16 µM)?
The IC50 was 8830 nM.

What about the IC50 (second compound 10 µM) of the same compound?
Its IC50 is 1180 nM.

And the viability, T/C [1]?
Its viability, T/C is 101%.

And the viability, T/C [2]?
Its viability, T/C is 88.5%.

What about the viability, T/C [3] of the same compound?
The viability, T/C was 95%.

What about the viability, T/C [4] of the same compound?
Its viability, T/C is 99.9%.

What about the viability, T/C [5] of the same compound?
Its viability, T/C is 95.8%.

What about the viability, T/C [6] of the same compound?
The viability, T/C was 68.2%.

What about the viability, T/C [7] of the same compound?
The viability, T/C was 98.6%.

What about the viability, T/C [8] of the same compound?
Its viability, T/C is 90.2%.

What about the viability, T/C [9] of the same compound?
Its viability, T/C is 96.3%.

And the viability, T/C [10]?
Its viability, T/C is 95.7%.

What about the viability, T/C [11] of the same compound?
Its viability, T/C is 96.5%.

And the viability, T/C [12]?
The viability, T/C was 64.2%.

And the viability, T/C [13]?
Its viability, T/C is 94%.

And the viability, T/C [14]?
The viability, T/C was 79.4%.

And the viability, T/C [15]?
The viability, T/C was 86.6%.

What about the viability, T/C [16] of the same compound?
The viability, T/C was 95.8%.

What about the viability, T/C [17] of the same compound?
Its viability, T/C is 93%.

And the viability, T/C [18]?
The viability, T/C was 61.5%.

And the viability, T/C [19]?
Its viability, T/C is 74.8%.

What about the viability, T/C [20] of the same compound?
The viability, T/C was 83.4%.

And the viability, T/C [21]?
The viability, T/C was 87.4%.

What about the viability, T/C [22] of the same compound?
Its viability, T/C is 89.7%.

What about the viability, T/C [23] of the same compound?
Its viability, T/C is 81.2%.

And the viability, T/C [24]?
The viability, T/C was 57%.

What about the viability, T/C [25] of the same compound?
The viability, T/C was 84.7%.

What about the viability, T/C [26] of the same compound?
Its viability, T/C is 80.9%.

What about the viability, T/C [27] of the same compound?
Its viability, T/C is 73%.

And the viability, T/C [28]?
The viability, T/C was 72.2%.

What about the viability, T/C [29] of the same compound?
Its viability, T/C is 70.7%.

What about the viability, T/C [30] of the same compound?
Its viability, T/C is 46.6%.

What about the viability, T/C [31] of the same compound?
Its viability, T/C is 75.3%.

What about the viability, T/C [32] of the same compound?
Its viability, T/C is 71.6%.

What about the viability, T/C [33] of the same compound?
Its viability, T/C is 61.9%.

And the viability, T/C [34]?
Its viability, T/C is 52.1%.

And the viability, T/C [35]?
The viability, T/C was 38.8%.

What about the viability, T/C [36] of the same compound?
The viability, T/C was 24.8%.

For `COc1ccc([C@@H](O)c2cc(-c3ncnc4cc(N5CCOCC5)ccc34)c(F)cc2Cl)nn1` + Cc1[nH]c2ccc(F)cc2c1-c1nc2c3cccnc3c3ncccc3c2[nH]1, which IC50 (second compound 0.0316 µM) is on record?
Its IC50 is 761 nM.

What about the IC50 (second compound 0.1 µM) of the same compound?
The IC50 was 1070 nM.

What about the IC50 (second compound 0.316 µM) of the same compound?
Its IC50 is 1130 nM.

What about the IC50 (second compound 1 µM) of the same compound?
Its IC50 is 1160 nM.

What about the IC50 (second compound 3.16 µM) of the same compound?
Its IC50 is 1050 nM.

And the IC50 (second compound 10 µM)?
Its IC50 is 874 nM.

What about the viability, T/C [1] of the same compound?
The viability, T/C was 95.7%.

What about the viability, T/C [2] of the same compound?
The viability, T/C was 90.1%.

What about the viability, T/C [3] of the same compound?
Its viability, T/C is 65.6%.

And the viability, T/C [4]?
The viability, T/C was 45.8%.

And the viability, T/C [5]?
The viability, T/C was 29.9%.

And the viability, T/C [6]?
Its viability, T/C is 23.9%.

And the viability, T/C [7]?
Its viability, T/C is 92.9%.

What about the viability, T/C [8] of the same compound?
Its viability, T/C is 92.9%.

What about the viability, T/C [9] of the same compound?
The viability, T/C was 79.3%.

And the viability, T/C [10]?
The viability, T/C was 52.3%.

What about the viability, T/C [11] of the same compound?
Its viability, T/C is 29.4%.

And the viability, T/C [12]?
Its viability, T/C is 27.6%.

What about the viability, T/C [13] of the same compound?
Its viability, T/C is 104%.

And the viability, T/C [14]?
Its viability, T/C is 87.3%.

And the viability, T/C [15]?
The viability, T/C was 83%.

And the viability, T/C [16]?
The viability, T/C was 47.1%.

And the viability, T/C [17]?
Its viability, T/C is 39.4%.

And the viability, T/C [18]?
The viability, T/C was 28.7%.

What about the viability, T/C [19] of the same compound?
Its viability, T/C is 102%.

What about the viability, T/C [20] of the same compound?
Its viability, T/C is 102%.

What about the viability, T/C [21] of the same compound?
Its viability, T/C is 82.9%.

And the viability, T/C [22]?
Its viability, T/C is 52.4%.

And the viability, T/C [23]?
Its viability, T/C is 32.5%.

And the viability, T/C [24]?
The viability, T/C was 23.9%.

And the viability, T/C [25]?
Its viability, T/C is 95.2%.

And the viability, T/C [26]?
The viability, T/C was 78.9%.

What about the viability, T/C [27] of the same compound?
The viability, T/C was 76.7%.

What about the viability, T/C [28] of the same compound?
The viability, T/C was 49.8%.

What about the viability, T/C [29] of the same compound?
Its viability, T/C is 31.8%.

What about the viability, T/C [30] of the same compound?
The viability, T/C was 25.9%.

What about the viability, T/C [31] of the same compound?
The viability, T/C was 89.8%.

What about the viability, T/C [32] of the same compound?
Its viability, T/C is 82.6%.

And the viability, T/C [33]?
The viability, T/C was 71.7%.

What about the viability, T/C [34] of the same compound?
The viability, T/C was 46.3%.

And the viability, T/C [35]?
The viability, T/C was 30.9%.

And the viability, T/C [36]?
The viability, T/C was 23.3%.

How did the IC50 (second compound 0.0316 µM) turn out when `O=C(c1cc(Cc2n[nH]c(=O)c3ccccc23)ccc1F)N1CCN(C(=O)C2CC2)CC1` + CN(C)c1ccc(Nc2c3ccc(NC(=O)CCN4CCCC4)cc3nc3cc(NC(=O)CCN4CCCC4)ccc23)cc1 was run?
Its IC50 is over 10000 nM.

And the IC50 (second compound 0.1 µM)?
The IC50 was over 10000 nM.

And the IC50 (second compound 0.316 µM)?
The IC50 was over 10000 nM.

And the IC50 (second compound 1 µM)?
Its IC50 is over 10000 nM.

And the IC50 (second compound 3.16 µM)?
Its IC50 is over 10000 nM.

And the IC50 (second compound 10 µM)?
The IC50 was over 10000 nM.

What about the viability, T/C [1] of the same compound?
Its viability, T/C is 104%.

And the viability, T/C [2]?
Its viability, T/C is 103%.

And the viability, T/C [3]?
The viability, T/C was 94.5%.

And the viability, T/C [4]?
Its viability, T/C is 100%.

What about the viability, T/C [5] of the same compound?
Its viability, T/C is 102%.

What about the viability, T/C [6] of the same compound?
The viability, T/C was 88.8%.

And the viability, T/C [7]?
Its viability, T/C is 95%.

And the viability, T/C [8]?
Its viability, T/C is 101%.

What about the viability, T/C [9] of the same compound?
Its viability, T/C is 102%.

What about the viability, T/C [10] of the same compound?
The viability, T/C was 104%.

What about the viability, T/C [11] of the same compound?
Its viability, T/C is 98%.

What about the viability, T/C [12] of the same compound?
Its viability, T/C is 81.4%.

What about the viability, T/C [13] of the same compound?
The viability, T/C was 87.6%.

And the viability, T/C [14]?
Its viability, T/C is 93.5%.

And the viability, T/C [15]?
Its viability, T/C is 101%.

What about the viability, T/C [16] of the same compound?
The viability, T/C was 101%.

What about the viability, T/C [17] of the same compound?
Its viability, T/C is 111%.

What about the viability, T/C [18] of the same compound?
The viability, T/C was 82%.

And the viability, T/C [19]?
The viability, T/C was 85.3%.

What about the viability, T/C [20] of the same compound?
The viability, T/C was 86.6%.

And the viability, T/C [21]?
Its viability, T/C is 89.9%.

What about the viability, T/C [22] of the same compound?
The viability, T/C was 104%.

And the viability, T/C [23]?
Its viability, T/C is 92.4%.

And the viability, T/C [24]?
Its viability, T/C is 66.3%.

What about the viability, T/C [25] of the same compound?
Its viability, T/C is 93.7%.

And the viability, T/C [26]?
The viability, T/C was 91%.

What about the viability, T/C [27] of the same compound?
The viability, T/C was 90.5%.

What about the viability, T/C [28] of the same compound?
Its viability, T/C is 94.2%.

What about the viability, T/C [29] of the same compound?
The viability, T/C was 95.2%.

And the viability, T/C [30]?
Its viability, T/C is 70.5%.

What about the viability, T/C [31] of the same compound?
The viability, T/C was 78.8%.

What about the viability, T/C [32] of the same compound?
Its viability, T/C is 81.9%.

And the viability, T/C [33]?
The viability, T/C was 81.9%.

And the viability, T/C [34]?
The viability, T/C was 90.4%.

And the viability, T/C [35]?
The viability, T/C was 86.3%.

What about the viability, T/C [36] of the same compound?
The viability, T/C was 64.5%.
